In the assay the test system is Xylella fastidiosa. Conditions: in vivo.

Take “MAKWKLFKKIGIGFKKAAHVGKAALTK [B-passerin]”: the PD resistance index result is listed as “higher than that of tolerant control plants” and the “resistance to X. fastidiosa conferred in transgenic grape plants” value is reported as “significantly higher level of resistance”.

The record behind these values is patent US20100138957A1 (priority 2007, published 2010).
